Data reported in US11547681B2, “N-acylethanolamide derivatives and uses thereof” (ELIEM THERAPEUTICS, INC., priority 2016, dated 2023).
Read-outs that look alike come from different tables or passages of the source.

Test: Simulated intestinal fluid (SIF) stability in the presence of various enzymes
Format: in vitro ADME
Conditions: 1 μM
Protocol: (§1) Studies were carried out in simulated intestinal fluid in the presence of various enzymes. Simulated intestinal fluid was prepared by dissolving 6.8 g of monobasic potassium phosphate in 1.0 L of water. Aliquots of this solution were taken and the pH was adjusted to 6.8. Individual enzymes were then spiked into aliquots for each experiment. A DMSO stock was first prepared for the test article. Aliquots of the DMSO solution were dosed into 700 μL of matrix, which had been pre-warmed to 37° C., at a final test article concentration of 1 μM. […] Samples were stored at 4° C. until the end of the experiment. After the final time point was sampled, the plate was mixed and then centrifuged at 3,000 rpm for 10 minutes. Calibration standards were prepared in matched matrix. […] Analytical conditions are outlined in Appendix 8-1.
as §1, with “10-1.” for “8-1.”
Studies were carried out in simulated intestinal fluid in the presence of various enzymes. Simulated intestinal fluid was prepared by dissolving 6.8 g of monobasic potassium phosphate in 1.0 L of water. Aliquots of this solution were taken and the pH was adjusted to 6.8. Individual enzymes were then spiked into aliquots for each experiment. A DMSO stock was first prepared for test article. Aliquots of the DMSO solution were dosed into 700 μL of matrix, which had been pre-warmed to 37° C., at a final test article concentration of 1 μM. […] Samples were stored at 4° C. until the end of experiment. After final time point was sampled, the plate was mixed and then centrifuged at 3,000 rpm for 10 minutes. Calibration standards were prepared in matched matrix. […] Analytical conditions are outlined in Appendix 13-1.
as §1, with “17-1.” for “8-1.”

[1] = SIF + Carboxypeptidase A, 0 min
[2] = SIF + Carboxypeptidase A, 15 min
[3] = SIF + Carboxypeptidase A, 30 min
[4] = SIF + Carboxypeptidase A, 60 min
[5] = SIF + Carboxypeptidase A, 120 min
[6] = SIF + Carboxypeptidase B, 0 min
[7] = SIF + Carboxypeptidase B, 15 min
[8] = SIF + Carboxypeptidase B, 30 min
[9] = SIF + Carboxypeptidase B, 60 min
[10] = SIF + Carboxypeptidase B, 120 min
[11] = simulated intestinal fluid with carboxypeptidase A, pH 6.8, SIF + Carboxypeptidase A, read-out: Half-life
[12] = simulated intestinal fluid with carboxypeptidase B, pH 6.8, SIF + Carboxypeptidase B, read-out: Half-life
[13] = simulated intestinal fluid with chymotrypsin, pH 6.8, SIF + Chymotrypsin, read-out: Half-life
[14] = simulated intestinal fluid with elastase, pH 6.8, SIF + Elastase, read-out: Half-life
[15] = simulated intestinal fluid with pancreatin, pH 6.8, SIF + Pancreatin, read-out: Half-life
[16] = simulated intestinal fluid with trypsin, pH 6.8, SIF + Trypsin, read-out: Half-life

Row | SMILES | % Remaining of Initial (n = 1) [1] [%] | % Remaining of Initial (n = 1) [2] [%] | % Remaining of Initial (n = 1) [3] [%] | % Remaining of Initial (n = 1) [4] [%] | % Remaining of Initial (n = 1) [5] [%] | % Remaining of Initial (n = 1) [6] [%] | % Remaining of Initial (n = 1) [7] [%] | % Remaining of Initial (n = 1) [8] [%] | % Remaining of Initial (n = 1) [9] [%] | % Remaining of Initial (n = 1) [10] [%] | % Remaining of Initial (n = 1) (SIF + Chymotrypsin, 0 min) [%] | % Remaining of Initial (n = 1) (SIF + Chymotrypsin, 15 min) [%] | % Remaining of Initial (n = 1) (SIF + Chymotrypsin, 30 min) [%] | % Remaining of Initial (n = 1) (SIF + Chymotrypsin, 60 min) [%] | % Remaining of Initial (n = 1) (SIF + Chymotrypsin, 120 min) [%] | % Remaining of Initial (n = 1) (SIF + Elastase, 0 min) [%] | % Remaining of Initial (n = 1) (SIF + Elastase, 15 min) [%] | % Remaining of Initial (n = 1) (SIF + Elastase, 30 min) [%] | % Remaining of Initial (n = 1) (SIF + Elastase, 60 min) [%] | % Remaining of Initial (n = 1) (SIF + Elastase, 120 min) [%] | other results
1 | CCCCC/C=C\C/C=C\CCCCCCCC(=O)OCCNC(=O)CCCCCCCCCCCCCCC [Compound I-6] | 100 | 77 | 46 | 60 | 56 | 100 | 87 | 93 | 54 | 19 | 100 | 106 | 99 | 51 | 55 | 100 | 95 | 74 | 64 | 69 | % Remaining of Initial (n = 1) (SIF + Pancreatin, 0 min): 100%; % Remaining of Initial (n = 1) (SIF + Pancreatin, 15 min): 27%; % Remaining of Initial (n = 1) (SIF + Pancreatin, 30 min): 11%; % Remaining of Initial (n = 1) (SIF + Pancreatin, 60 min): 3.1%; % Remaining of Initial (n = 1) (SIF + Pancreatin, 120 min): 1.7%; % Remaining of Initial (n = 1) (SIF + Trypsin, 0 min): 100%; % Remaining of Initial (n = 1) (SIF + Trypsin, 15 min): 116%; % Remaining of Initial (n = 1) (SIF + Trypsin, 30 min): 87%; % Remaining of Initial (n = 1) (SIF + Trypsin, 60 min): 83%; % Remaining of Initial (n = 1) (SIF + Trypsin, 120 min): 123%; half-life at 1 μM (simulated intestinal fluid with carboxypeptidase A, pH 6.8, SIF + Carboxypeptidase A, outside the sampled time range, read-out: Half-life, calculated (in parentheses)): 134 min; half-life at 1 μM [11]: > 120 min; half-life at 1 μM [12]: 62 min; half-life at 1 μM [13]: 101 min; half-life at 1 μM (simulated intestinal fluid with elastase, pH 6.8, SIF + Elastase, outside the sampled time range, read-out: Half-life, calculated (in parentheses)): 185 min; half-life at 1 μM [14]: > 120 min; half-life at 1 μM [15]: 8.3 min; half-life at 1 μM [16]: > 120 min
2 | CCCCCCCCCCCCCCCC(=O)NCCOC(=O)CCC(=O)OC[C@H]1O[C@@](CO)(O[C@H]2O[C@H](CO)[C@@H](O)[C@H](O)[C@H]2O)[C@@H](O)[C@@H]1O [Compound I-7] | 100 | 30 | 10 | 4.1 | 3.9 | 100 | 33 | 14 | 5.7 | 2.2 | 100 | 42 | 23 | 13 | 15 | 100 | 44 | 14 | 3.8 | 3.5 | % Remaining of Initial (n = 1) (SIF + Pancreatin, 0 min): 100%; % Remaining of Initial (n = 1) (SIF + Pancreatin, 15 min): 40%; % Remaining of Initial (n = 1) (SIF + Pancreatin, 30 min): 19%; % Remaining of Initial (n = 1) (SIF + Pancreatin, 60 min): 6.5%; % Remaining of Initial (n = 1) (SIF + Pancreatin, 120 min): 2.7%; % Remaining of Initial (n = 1) (SIF + Trypsin, 0 min): 100%; % Remaining of Initial (n = 1) (SIF + Trypsin, 15 min): 66%; % Remaining of Initial (n = 1) (SIF + Trypsin, 30 min): 44%; % Remaining of Initial (n = 1) (SIF + Trypsin, 60 min): 38%; % Remaining of Initial (n = 1) (SIF + Trypsin, 120 min): 33%; half-life at 1 μM [11]: 8.8 min; half-life at 1 μM [12]: 10 min; half-life at 1 μM [13]: 14 min; half-life at 1 μM [14]: 12 min; half-life at 1 μM [15]: 12 min; half-life at 1 μM [16]: 50 min
